In patent publication US9458172B2, “Pyridinyl and pyrimidinyl sulfoxide and sulfone derivatives” (priority 2012, dated 2016):
Where two headings read alike, the source gives them in different places.

Tests used:
tumor cell lines = settings: broad range of tumor cell lines; cited from earlier work
NAMPT = NAMPT (Homo sapiens (Human), UniProt P43490); assay: Biochemical Inhibition Assay (NAMPT enzymatic reaction, NMN quantified by mass spectrometry); settings: 33 nM recombinant His-tagged NAMPT, 1 μM NAM, 30 min at rt
Procedure, shortened: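 His-tagged human NAMPT from E. coli preincubated 15 min at rt with compound in 50 mM Hepes pH 7.5, 50 mM NaCl, 5 mM MgCl2, 1 mM THP, then reacted 30 min at rt with 1 μM NAM, […] PRPP, 2.5 mM ATP. NMN quantified by RapidFire mass spectrometry, normalized to L-Cystathionine, background subtracted.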

A2780 cells = assay: In-Vitro Cell Proliferation Assay (SRB); settings: Homo sapiens, A2780, 72 h
mouse mammary carcinoma = mouse mammary carcinoma model; cited from earlier work
[1] = read-out: Cell Proliferation (IC50)
[2] = read-out: Cell Proliferation (IC50), A2780 cells, 72 h, sulforhodamine B

Chain of NAMPT (P43490 whole entry): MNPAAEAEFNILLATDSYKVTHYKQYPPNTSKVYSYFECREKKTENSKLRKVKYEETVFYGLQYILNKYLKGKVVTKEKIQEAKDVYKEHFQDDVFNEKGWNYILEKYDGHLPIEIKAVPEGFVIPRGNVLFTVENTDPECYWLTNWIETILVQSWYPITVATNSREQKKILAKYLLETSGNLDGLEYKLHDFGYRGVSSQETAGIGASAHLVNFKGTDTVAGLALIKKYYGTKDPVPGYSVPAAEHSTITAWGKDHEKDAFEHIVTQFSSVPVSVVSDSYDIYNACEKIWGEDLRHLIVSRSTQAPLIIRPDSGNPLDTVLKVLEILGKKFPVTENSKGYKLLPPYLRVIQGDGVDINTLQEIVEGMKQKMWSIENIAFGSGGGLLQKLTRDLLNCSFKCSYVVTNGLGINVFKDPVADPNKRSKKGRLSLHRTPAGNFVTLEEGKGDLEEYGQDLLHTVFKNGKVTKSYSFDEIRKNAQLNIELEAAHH

| SMILES | IC50 (NAMPT) [nM] | IC50 (A2780 cells; [1]) [nM] | also measured |
| --- | --- | --- | --- |
| N#CN=C(NCCCCCCOc1ccc(Cl)cc1)Nc1ccncc1 [CHS-828] | – | – | cell growth (tumor cell lines): potently inhibit cell growth |
| O=C(NCc1ccc(S(=O)(=O)C2CCN(C3CCOCC3)CC2)cn1)c1cnc2[nH]ncc2c1 [Example 162, N-[[5-[(1-tetrahydropyran-4-yl-4-piperidyl)sulfonyl]-2-pyridyl]methyl]-1H-pyrazolo[3,4-b]pyridine-5-carboxamide] | 1830 | 295 | – |
| O=C(NCc1ccc(S(=O)(=O)c2cncc(C(F)(F)F)c2)cn1)c1cc2ccncc2o1 [Example 163, N-[[5-[[5-(trifluoromethyl)-3-pyridyl]sulfonyl]-2-pyridyl]methyl]furo[2,3-c]pyridine-2-carboxamide] | 49.5 | 25.3 | – |
| O=C(NCc1ccc(S(=O)(=O)c2cncc(Cl)c2)cn1)c1cnc2[nH]ncc2c1 [Example 164, N-[[5-[(5-chloro-3-pyridyl)sulfonyl]-2-pyridyl]methyl]-1H-pyrazolo[3,4-b]pyridine-5-carboxamide] | 143 | 49.4 | – |
| O=C(NCc1ccc(S(=O)(=O)c2cncc(C(F)(F)F)c2)cn1)c1cnc2[nH]ncc2c1 [Example 165, N-[[5-[[5-(trifluoromethyl)-3-pyridyl]sulfonyl]-2-pyridyl]methyl]-1H-pyrazolo[3,4-b]pyridine-5-carboxamide] | 217 | 64.4 | – |
| O=C(NCc1ccc(S(=O)(=O)C2CCN(CC(F)(F)F)CC2)cn1)c1cc2cnccc2[nH]1 [Example 166, N-[[5-[[1-(2,2,2-trifluoroethyl)-4-piperidyl]sulfonyl)-2-pyridyl]methyl]-1H-pyrrolo[3,2-c]pyridine-2-carboxamide] | 224 | 91 | – |
| O=C(NCc1ccc(S(=O)(=O)c2cnc(N3CCOCC3)nc2)cn1)c1ccc2nccn2c1 [Example 167, N-[[5-(2-morpholinopyrimidin-5-yl)sulfonyl-2-pyridyl]methyl]imidazo[1,2-a]pyridine-6-carboxamide] | 23 | 6.7 | – |
| O=C(NCc1ccc(S(=O)(=O)c2cncc(C(F)(F)F)c2)cn1)c1ccc2nccn2c1 [Example 168, N-[[5-[[5-(trifluoromethyl)-3-pyridyl]sulfonyl]-2-pyridyl]methyl]imidazo[1,2-a]pyridine-6-carboxamide] | 60.8 | 14.9 | – |
| O=C(NCc1ccc(S(=O)(=O)c2cncc(Cl)c2)cn1)c1cc2ccncc2o1 [Example 169, N-[[5-[(5-chloro-3-pyridyl)sulfonyl]-2-pyridyl]methyl]furo[2,3-c]pyridine-2-carboxamide] | 66.4 | 26.9 | – |
| O=C(NCc1ccc(S(=O)(=O)c2cncc(C(F)(F)F)c2)cn1)N1Cc2ccncc2C1 [Example 170, N-[[5-[[5-(trifluoromethyl)-3-pyridyl]sulfonyl]-2-pyridyl]methyl]-1,3-dihydropyrrolo[3,4-c]pyridine-2-carboxamide] | 49.1 | 25.4 | – |
| CCCn1cc(S(=O)(=O)c2ccc(CNC(=O)c3cc4cnccc4[nH]3)nc2)cn1 [Example 171, N-[[5-(1-propylpyrazol-4-yl)sulfonyl-2-pyridyl]methyl]-1H-pyrrolo[3,2-c]pyridine-2-carboxamide] | 62 | – | IC50 (A2780 cells; [2]): 51.2 nM |
| CC(C)CN1CCC([S+]([O-])c2ccc(CNC(=O)c3ccc4nccn4c3)nc2)CC1 (stereo not drawn) [Example 172, N-[[5-[(1-isobutyl-4-piperidyl)sulfinyl]-2-pyridyl]methyl]imidazo[1,2-a]pyridine-6-carboxamide] | 249 | 106 | – |
| O=C(NCc1ccc([S+]([O-])C2CCN(CC(F)(F)F)CC2)cn1)c1ccc2nccn2c1 (stereo not drawn) [Example 173, N-[[5-[[1-(2,2,2-trifluoroethyl)-4-piperidyl]sulfinyl]-2-pyridyl]methyl]imidazo[1,2-a]pyridine-6-carboxamide] | 202 | 63.1 | – |
| N#Cc1cncc(S(=O)(=O)c2ccc(CNC(=O)c3cc4ccncc4o3)nc2)c1 [Example 174, N-[[5-[(5-cyano-3-pyridyl)sulfonyl]-2-pyridyl]methyl]furo[2,3-c]pyridine-2-carboxamide] | 217 | 116 | – |
| CCn1cc(S(=O)(=O)c2ccc(CNC(=O)N3Cc4ccncc4C3)nc2)cn1 [Example 177, N-[[5-(1-ethylpyrazol-4-yl)sulfonyl-2-pyridyl]methyl]-1,3-dihydropyrrolo[3,4-c]pyridine-2-carboxamide] | 32 | – | IC50 (A2780 cells; [2]): 264 nM |
| O=C(NCc1ccc(S(=O)(=O)c2ccccc2)cn1)N1Cc2cn[nH]c2C1 [Example 178, N-[[5-(benzenesulfonyl)-2-pyridyl]methyl]-4,6-dihydro-1H-pyrrolo[3,4-c]pyrazole-5-carboxamide] | 2000 | 2000 | – |
| Cn1ncc2c1CN(C(=O)NCc1ccc(S(=O)(=O)c3ccccc3)cn1)C2 [Example 179, N-[[5-(benzenesulfonyl)-2-pyridyl]methyl]-1-methyl-4,6-dihydropyrrolo[3,4-c]pyrazole-5-carboxamide] | 1380 | – | IC50 (A2780 cells; [2]): 2000 nM |
| O=C(NCc1ccc(S(=O)(=O)N2CCCCC2)cn1)N1Cc2cn[nH]c2C1 [Example 180, N-[[5-(1-piperidylsulfonyl)-2-pyridyl]methyl]-4,6-dihydro-1H-pyrrolo[3,4-c]pyrazole-5-carboxamide] | 562 | 2000 | – |
| O=C(NCc1ncc(S(=O)(=O)c2cc(F)cc(F)c2)cn1)c1cc2ccncc2o1 [Example 182, N-[[5-(3,5-difluorophenyl)sulfonyl-pyrimidin-2-yl]methyl]furo[2,3-c]pyridine-2-carboxamide] | 25.1 | 40.5 | – |
| O=C(NCc1ccc(S(=O)(=O)c2ccccc2)cn1)c1ccc2nccn2c1 [Example 184, N-[[5-(benzenesulfonyl)-2-pyridyl]methyl]imidazo[1,2-a]pyridine-6-carboxamide] | 99.2 | – | IC50 (A2780 cells; [2]): 2000 nM |
| O=C(NCc1ccc(S(=O)(=O)c2ccccc2)cn1)c1cnc2nccn2c1 [Example 185, N-[[5-(benzenesulfonyl)-2-pyridyl]methyl]imidazo[1,2-a]pyrimidine-6-carboxamide] | 20.2 | 495 | – |
| O=C(NCc1ccc(S(=O)(=O)c2ccccc2)cn1)c1cc2ccncc2s1 [Example 186, N-[[5-(benzenesulfonyl)-2-pyridyl]methyl]thieno[2,3-c]pyridine-2-carboxamide] | 125 | – | IC50 (A2780 cells; [2]): 918 nM |
| O=C(NCc1ncc(S(=O)(=O)c2ccccc2)cn1)c1cc2ccncc2s1 [Example 187, N-[[5-(benzenesulfonyl)pyrimidin-2-yl]methyl]thieno[2,3-c]pyridine-2-carboxamide] | 433 | 2000 | – |
| O=C(/C=C/c1cccnc1)NCCCCC1CCN(C(=O)c2ccccc2)CC1 [FK866] | – | – | NAD levels (mouse mammary carcinoma): reduce NAD levels; tumor growth (mouse mammary carcinoma): induce a delay in tumor growth; tumor radiosensitivity (mouse mammary carcinoma): enhance tumor radiosensitivity |
